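Cultured in 96-well plates, cells were exposed to test compound for 48 hours across five concentrations. The concentration for 50% growth inhibition is given as GI50.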 Active and inactive are the calls of the source. Rule as the data show it: active = GI50 up to about 1.1 µM and inactive = higher.
Tests used:
Test in all cases: inhibition of tumour cell growth, NCI panel, 48 h
[1] = system: 786-0
[2] = system: A498
[3] = system: A549
[4] = system: ACHN
[5] = system: CAKI-1
[6] = system: CCRF-CEM
[7] = system: COLO 205
[8] = system: DLD-1
[9] = system: DMS-114
[10] = system: EKVX
[11] = system: HCC 2998
[12] = system: HCT-116
[13] = system: HCT-15
[14] = system: HL-60
[15] = system: HOP-62
[16] = system: HOP-92
[17] = system: IGROV-1
[18] = system: K562
[19] = system: KM-20L2
[20] = system: LOX IMVI
[21] = system: LXFL 529
[22] = system: M14
[23] = system: M19-MEL
[24] = system: MOLT-4
[25] = system: Malme-3M
[26] = system: NCI-H226
[27] = system: NCI-H23
[28] = system: NCI-H460
[29] = system: NCI-H522
[30] = system: OVCAR-4
[31] = system: OVCAR-5
[32] = system: OVCAR-8
[33] = system: RPMI-8226
[34] = system: RXF 393
[35] = system: RXF 631
[36] = system: SF-268
[37] = system: SF-539
[38] = system: SK-MEL-28
[39] = system: SK-MEL-2
[40] = system: SK-OV-3
[41] = system: SN12C
[42] = system: SNB-19
[43] = system: SNB-75
[44] = system: SNB-78
[45] = system: SW-620
[46] = system: TK-10
[47] = system: U-251
[48] = system: UACC-62
[49] = system: UO-31
[50] = system: XF498

Cc1cccc(C)c1NC(=O)CCc1nnc(S)[nH]1 was tested, and the GI50 [1] was > 100 µM (inactive), the GI50 [2] was > 100 µM (inactive) and the GI50 [3] was > 100 µM (inactive). The GI50 [4] was > 100 µM (inactive), the GI50 [5] was > 100 µM (inactive) and the GI50 [6] was > 100 µM (inactive). For the same molecule, the GI50 [7] was > 100 µM (inactive), the GI50 [8] was > 100 µM (inactive) and the GI50 [9] was > 100 µM (inactive). The GI50 [10] was > 100 µM (inactive), the GI50 [11] was > 100 µM (inactive) and the GI50 [12] was > 100 µM (inactive). For the same molecule, the GI50 [13] was over 100 µM, the GI50 [14] was > 100 µM (inactive) and the GI50 [15] was > 100 µM (inactive). The GI50 [16] was > 100 µM (inactive), the GI50 [17] was > 100 µM (inactive) and the GI50 [18] was > 100 µM (inactive). The GI50 [19] was > 100 µM (inactive), the GI50 [20] was > 100 µM (inactive) and the GI50 [21] was > 100 µM (inactive). For the same molecule, the GI50 [22] was > 100 µM (inactive), the GI50 [23] was > 100 µM (inactive) and the GI50 [24] was > 100 µM (inactive). For the same molecule, the GI50 [25] was > 100 µM (inactive), the GI50 [26] was > 100 µM (inactive) and the GI50 [27] was > 100 µM (inactive). The GI50 [28] was > 100 µM (inactive), the GI50 [29] was > 100 µM (inactive) and the GI50 [30] was > 100 µM (inactive). For the same molecule, the GI50 [31] was > 100 µM (inactive), the GI50 [32] was > 100 µM (inactive) and the GI50 [33] was > 100 µM (inactive). For the same molecule, the GI50 [34] was > 100 µM (inactive), the GI50 [35] was > 100 µM (inactive) and the GI50 [36] was > 100 µM (inactive). For the same molecule, the GI50 [37] was > 100 µM (inactive), the GI50 [38] was > 100 µM (inactive) and the GI50 [39] was > 100 µM (inactive). For the same molecule, the GI50 [40] was > 100 µM (inactive), the GI50 [41] was > 100 µM (inactive) and the GI50 [42] was > 100 µM (inactive). The GI50 [43] was > 100 µM (inactive), the GI50 [44] was > 100 µM (inactive) and the GI50 [45] was > 100 µM (inactive). The GI50 [46] was > 100 µM (inactive), the GI50 [47] was > 100 µM (inactive) and the GI50 [48] was > 100 µM (inactive). For the same molecule, the GI50 [49] was > 100 µM (inactive) and the GI50 [50] was > 100 µM (inactive).
